Values joined by “and” are separate entries in the source; they are usually repeats but may differ in a detail not shown here. Equal values may be shown once. Read-outs that look alike come from different tables or passages of the source.
Experiments:
[1] = test system: HT29 human colon carcinoma cell line; test: MTT growth inhibition assay, single agents and fixed-ratio combinations with elsamitrucin (Chou-Talalay, CalcuSyn), HT29; format: cell-based
Procedure: (§1) These individual agents and their combinations were evaluated for in vitro activity against the HT29 colon carcinoma, SKMES non-small cell lung carcinoma, and Daudi B-lymphoblastic cell lines. Cell growth in 96-well microculture plates was determined with a semi-automated MTT assay. Efficacies of drug combinations were analyzed according to the methods of Chou and Talalay, utilizing CalcuSyn software. Twenty-one in vitro experiments were conducted to determine the individual and combined growth inhibitory activities of elsamitrucin and the ten selected agents in the three cell lines.
(§2) b. Cell Lines. The human HT29 colon carcinoma, SKMES non-small cell lung carcinoma, and Daudi B-lymphoblastic cell lines were originally obtained from ATCC (American Type Culture Collection). These cell lines have been maintained and stored as frozen stocks. […] The medium for Daudi cells was additionally supplemented with 1 mM sodium pyruvate.
(§3) c. Growth Inhibition Assay. Anti-proliferative activities against the HT29, SKMES, and Daudi cell lines were evaluated in vitro by the MTT assay. Cells (1,500-2,000 cells/well) were seeded in a 96-well microculture plate in 180 pL of medium/well. […] DMSO was present in all wells at a final concentration of 0.1%. […] When the appropriate cell density was attained in the control wells, the plates were centrifuged briefly, and 100 pL of the growth medium was removed. The cell cultures were incubated with 50 μL of MTT reagent (1 mg/mL in Dulbecco's phosphate-buffered saline) for 4 hr at 37° C. The resultant purple formazan precipitate was solubilized with 200 μL of 0.04 N HCl in isopropanol.
(§4) The results of each experiment were stored in Excel format.
(§5) d. Preliminary Experiments: Design and Data Analysis. […] The initial experiments utilized serial three-fold dilutions of the drugs to produce ten test concentrations over a broad concentration range. Based on the initial results, a narrower concentration range was selected, and serial 1:1.5 dilutions were utilized to produce ten test concentrations. Experiments were repeated as needed.
(§6) For assays that utilized lower dilution factors to produce narrower concentration ranges, the results were analyzed with both Prism and CalcuSyn (as described below) to allow comparison of the IC50 and Da, values. The results guided the selection of appropriate concentration ranges and concentration ratios for the combination experiments.
(§7) e. Combination Experiments: Design and Data Analysis. The fixed-ratio design of Chou was used for the combination experiments. For each experiment, the drug solutions were mixed at a ratio that was expected to provide approximately equipotent concentrations, and the mixture was serially diluted with medium containing 1% DMSO to yield 10× stock solutions of the test concentrations. […] Each agent was tested individually and in combination at seven concentrations. The concentration range selected for each assay was designed to bracket the concentrations that produced half-maximal effects (ED50) with each single agent and their mixture. The concentrations used for the single-drug assays were twice as high as their concentrations in the mixture. Each assay was performed in quadruplicate. For each drug combination, the individual agents and their mixture were assayed on the same 96-well plate. The effects of the individual drugs and their combinations were analyzed by the method of Chou and Talalay. The results of each experiment were entered into CalcuSyn (BIOSOFT) for dose-effect analysis.
(§8) where Acontrol and Adrug are the respective absorbances of vehicle control and drug-treated wells in the MIT assay.
(§9) where the slope, m, is related to the sigmoidicity of the dose-effect curve, with m=1, >1, and <1 indicating hyperbolic, sigmoidal, and reverse sigmoidal shapes, respectively.

[2] = test system: SKMES human non-small cell lung carcinoma cell line; test: MTT growth inhibition assay, single agents and fixed-ratio combinations with elsamitrucin (Chou-Talalay, CalcuSyn), SKMES; format: cell-based; conditions: Homo sapiens
Procedure: as §1, §2, §3, §4, §5, §6, §7, §8, §9

[3] = test system: Daudi human lymphoma cell line; test: MTT growth inhibition assay, single agents and fixed-ratio combinations with elsamitrucin (Chou-Talalay, CalcuSyn), Daudi; format: cell-based
Procedure: as §1, §2, §3, §4, §5, §6, §7, §8, §9

[4] = HCT116-e256 study: toxicity (body weight, treatment-related deaths, clinical signs); format: in vivo, nude mice
Excerpt: f. Toxicity. Animals were weighed daily for the first five days of the study and then twice weekly. […] Acceptable toxicity is defined as a group mean body-weight loss of less than 20% during the study and not more than one treatment-related (TR) death among ten treated animals. […] A death was classified as TR if attributable to treatment side effects as evidenced by clinical signs and/or necropsy, or may be classified as TR if due to unknown causes during the dosing period or within 10 days of the last dose. A death was classified as an NTR if there is no evidence that death was related to treatment side effects.

[5] = test system: HCT116 human colon carcinoma; conditions: i.v., qod x5; cited from earlier work
[6] = Homo sapiens, HT-29, SPA-01 (HT29-e21), single agent, dilution 1:3, read-out: Prism IC50
[7] = Homo sapiens, HT-29, SPA-04 (HT29-e22), single agent, dilution 1:1.5, read-out: CalcuSyn Dm
[8] = Homo sapiens, HT-29, SPA-04 (HT29-e22), single agent, dilution 1:1.5, read-out: Prism IC50
[9] = Homo sapiens, HT-29, average of preliminary single-agent experiments, HT29, read-out: Average IC50, Dm value
[10] = SPA-02 (SKMES-e22), single agent, dilution 1:3, read-out: Prism IC50
[11] = SPA-03 (SKMES-e23), single agent, dilution 1:1.5, read-out: CalcuSyn Dm
[12] = SPA-03 (SKMES-e23), single agent, dilution 1:1.5, read-out: Prism IC50
[13] = average of preliminary single-agent experiments, SKMES, read-out: Average IC50, Dm value
[14] = Homo sapiens, Daudi, SPA-05 (Daudi-e01), single agent, dilution 1:3, read-out: Prism IC50
[15] = Homo sapiens, Daudi, average of preliminary single-agent experiments, Daudi, read-out: Average IC50, Dm value
[16] = Groups 2,4,6,8,10: elsamitrucin 10 mg/kg ip q4d x3, paclitaxel 15 mg/kg iv qod x5, cisplatin 2.7 mg/kg ip qd x5
[17] = Groups 3,5,7,9,11: elsamitrucin 5 mg/kg ip q4d x3, paclitaxel 7.5 mg/kg iv qod x5, cisplatin […] ip qd x5

SMILES | IC50 [1, 6] | IC50 [1, 7] | IC50 [1, 8] | IC50 [1, 9] | IC50 [2, 10] | IC50 [2, 11] | IC50 [2, 12] | IC50 [2, 13] | IC50 [3, 14] | IC50 [3, 15] | Day of Mean BW Nadir [4, 16] | Mean BW Nadir (lowest group mean body weight, as % change from Day 1) [4, 16] | No. of NTR (non-treatment-related death) [4, 16] | No. of TR (treatment-related death) [4, 16] | No. of NTR (non-treatment-related death) [4, 17] | No. of TR (treatment-related death) [4, 17] | other results
CO[C@@H]1[C@@H](N)[C@@H](O[C@H]2[C@H](Oc3cccc4c(O)c5c(=O)oc6ccc(C)c7c(=O)oc(c34)c5c67)O[C@H](C)[C@H](O)[C@]2(C)O)O[C@H](C)[C@@H]1O [Elsamitrucin, benzo(h)(1)benzopyrano(5,4,3-cde)(1)ebnzopyran-5,12-dione,10((2-O-(2-amino-2,6-dideoxy-3-O-methyl-alpha-D-galactopyranosyl)-6-deoxy-3-C-methyl-beta-D-galactopyranosyl)oxy)-6-hydroxy-1-methyl] | 80 nM | 81 nM | 70 nM | 77 nM | 12 nM | 25.6 nM | 24.4 nM | 21 nM | 12 nM | 33 nM | 7 days | −8.4% | 0 | 0 | 0 | 0 | IC50 ([1]; HT29, single agent on the same plate as the combination, read-out: Dm Value, Individually, Elsamitrucin): 36 nM and 118 nM and 96 nM and 58 nM and 54 nM and 67 nM and 39 nM and 40 nM and 103 nM and 51 nM and 37 nM and 29 nM and 86 nM and 73 nM and 50 nM and 71 nM and 124 nM and 32 nM and 27 nM; IC50 ([1]; Homo sapiens, HT-29, HT29, Table 1, read-out: average Dm determined in the preliminary experiments): 77 nM; IC50 ([1]; Homo sapiens, HT-29, HT29, single agent, ten selected assays of Table 2, read-out: average Dm): 63 nM; IC50 ([1]; Homo sapiens, HT-29, HT29, single agent, ten selected assays of Table 2, read-out: range of Dm): 36 to 118 nM; IC50 ([1]; Homo sapiens, HT-29, HT29 cells, single agent, read-out: average Dm): 63 nM; IC50 ([2]; SKMES cells, single agent, read-out: average Dm): 22 nM; IC50 ([2]; SKMES, single agent, ten assays of Table 5, read-out: average Dm): 22 nM; IC50 ([2]; SKMES, single agent, ten assays of Table 5, read-out: range of Dm): 11 to 53 nM; IC50 ([3]; Daudi growth inhibition, elsamitrucin alone, one value per plate, Table 8 (Supplement), read-out: Dm Value (95% Confidence Interval), Individually, Elsamitrucin): 23 nM and 30 nM and 28 nM and 15 nM and 13 nM and 34 nM and 26 nM; IC50 ([3]; Daudi growth inhibition, elsamitrucin alone, one value per plate, Table 8, read-out: Dm Value (95% Confidence Interval), Individually, Elsamitrucin): 30 nM and 28 nM and 13 nM and 34 nM and 26 nM and 23 nM; IC50 ([3]; Homo sapiens, Daudi, SPA-15 (Daudi-e03), single agent, dilution 1:1.5 (elsamitrucin 1:1.33), read-out: CalcuSyn Dm): 46 nM; IC50 ([3]; Homo sapiens, Daudi, SPA-15 (Daudi-e03), single agent, dilution 1:1.5 (elsamitrucin 1:1.33), read-out: Prism IC50): 40 nM; IC50 ([3]; Homo sapiens, Daudi, single agent, ten assays of Table 8, read-out: average Dm): 27 nM; IC50 ([3]; Homo sapiens, Daudi, single agent, ten assays of Table 8, read-out: range of Dm): 13 to 34 nM; Day of Mean BW Nadir [4, 17]: 7 days; Mean BW Nadir (lowest group mean body weight, as % change from Day 1) ([4]; Groups 3,5,7,9,11: elsamitrucin 5 mg/kg ip q4d x3, paclitaxel 7.5 mg/kg iv qod x5, cisplatin […] ip qd x5, — indicates no decrease in mean body weight was observed): −4.8%; group body weight loss ([4]; elsamitrucin 10 mg/kg, in monotherapy and in the combinations): modest group BW losses
CC(=O)O[C@H]1C(=O)[C@@]2(C)[C@H]([C@H](OC(=O)c3ccccc3)[C@]3(O)C[C@H](OC(=O)[C@H](O)[C@@H](NC(=O)c4ccccc4)c4ccccc4)C(C)=C1C3(C)C)[C@]1(OC(C)=O)CO[C@@H]1C[C@@H]2O [Paclitaxel, paclitaxel] | 1.6 nM | 2.3 nM | 2.4 nM | 2 nM | 1.1 nM | 2.8 nM | 2.6 nM | 2 nM | 3.6 nM | 4 nM | 7 days | −4.6% | 0 | 0 | 0 | 0 | IC50 ([1]; Homo sapiens, HT-29, HT29, single agent on the same plate as the combination, read-out: Dm Value, Individually, Second Agent): 3.2 nM; IC50 ([2]; SKMES growth inhibition, second agent alone, one value per plate (Experiment ID), read-out: Dm Value (95% Confidence Interval), Individually, Second Agent): 3.5 nM; IC50 ([2]; SKMES, single agent on the same plate as the combination, read-out: Dm Value, Individually, Second Agent): 3.5 nM; IC50 ([3]; Homo sapiens, Daudi, Daudi growth inhibition, second agent alone, one value per plate, Table 8 (Supplement), read-out: Dm Value (95% Confidence Interval), Individually, Second Agent): 4 nM; IC50 ([3]; Homo sapiens, Daudi, Daudi growth inhibition, second agent alone, Table 8, read-out: Dm Value (95% Confidence Interval), Individually, Second Agent): 4 nM; IC50 ([3]; Homo sapiens, Daudi, SPA-08 (Daudi-e02), single agent, dilution 1:1.5, read-out: CalcuSyn Dm): 4.1 nM; IC50 ([3]; Homo sapiens, Daudi, SPA-08 (Daudi-e02), single agent, dilution 1:1.5, read-out: Prism IC50): 3.3 nM; IC50 ([3]; Homo sapiens, Daudi, read-out: approximate Dm values for the second drugs as single agents): ~4 nM; optimum therapeutic dose identified in previous studies [5]: 30 mg/kg

— US20080181971A1, “Combination Cancer Treatments Comprising Elsamitrucin and Other Agents” (priority 2007, published 2008)
